According to the SangsterLogP compilation:

Test: method code SF-AS, from DOI: 10.1002/ps.2780410210

| Structure (SMILES) | logP |
| --- | --- |
| Cc1c(Cl)cccc1C(=O)N(NC(=O)c1ccccc1)C(C)(C)C | 3.57 |
| CSc1ccccc1C(=O)N(NC(=O)c1ccccc1)C(C)(C)C | 2.6 |
| CC(C)(C)N(NC(=O)c1ccccc1)C(=O)c1cccc(C(F)(F)F)c1 | 3.61 |
| CC(C)(C)N(NC(=O)c1ccccc1)C(=O)c1ccccc1 | 2.45 |
| Cc1cccc(C(=O)N(NC(=O)c2ccccc2)C(C)(C)C)c1C | 3.1 |
| CC(C)(C)N(NC(=O)c1ccccc1)C(=O)c1c(F)cccc1F | 2.16 |
| CC(C)(C)N(NC(=O)c1ccccc1)C(=O)c1cc(Cl)ccc1Cl | 3.36 |
| Cc1ccc(C(=O)N(NC(=O)c2ccccc2)C(C)(C)C)c(C)c1 | 3.18 |
| CC(C)(C)N(NC(=O)c1ccccc1)C(=O)c1cccc(Cl)c1 | 3.28 |
| CC(C)(C)N(NC(=O)c1ccccc1)C(=O)c1ccc(F)cc1 | 2.85 |
| Cc1ccc(C)c(C(=O)N(NC(=O)c2ccccc2)C(C)(C)C)c1 | 3.25 |
| Cc1ccc(C(=O)N(NC(=O)c2ccccc2)C(C)(C)C)cc1 | 2.99 |
| Cc1cc(C)cc(C(=O)N(NC(=O)c2ccccc2)C(C)(C)C)c1 | 3.39 |
| CC(C)(C)N(NC(=O)c1ccccc1)C(=O)c1c(F)c(F)c(F)c(F)c1F | 3.25 |
| COc1cccc(C(=O)N(NC(=O)c2ccccc2)C(C)(C)C)c1 | 2.56 |
| CC(C)(C)N(NC(=O)c1ccccc1)C(=O)c1ccc([N+](=O)[O-])cc1 | 2.63 |
| COc1ccc(C(=O)N(NC(=O)c2ccccc2)C(C)(C)C)cc1OC | 2.09 |
| COc1ccccc1C(=O)N(NC(=O)c1ccccc1)C(C)(C)C | 2.04 |
| CC(C)(C)N(NC(=O)c1ccccc1)C(=O)c1c(Cl)cccc1Cl | 2.56 |
| CC(C)(C)N(NC(=O)c1ccccc1)C(=O)c1ccccc1F | 2.38 |
| CC(C)(C)N(NC(=O)c1ccccc1)C(=O)c1ccccc1[N+](=O)[O-] | 2.27 |
| CC(C)(C)N(NC(=O)c1ccccc1)C(=O)c1ccccc1C(F)(F)F | 2.85 |

| Structure (SMILES) | logP |
| --- | --- |
| Cc1ccccc1C(=O)N(NC(=O)c1ccccc1)C(C)(C)C | 2.75 |
| CC(C)(C)N(NC(=O)c1ccccc1)C(=O)c1ccc(Cl)cc1 | 3.42 |
| CC(C)(C)N(NC(=O)c1ccccc1)C(=O)c1cccc(F)c1 | 2.78 |
| CC(C)(C)N(NC(=O)c1ccccc1)C(=O)c1ccccc1I | 2.83 |
| CC(C)(C)N(NC(=O)c1ccccc1)C(=O)c1ccc(I)cc1 | 3.78 |
| CC(C)(C)N(NC(=O)c1ccccc1)C(=O)c1cccc([N+](=O)[O-])c1 | 2.73 |
| CC(C)(C)N(NC(=O)c1ccccc1)C(=O)c1ccc(C(F)(F)F)cc1 | 3.77 |
| CC(C)(C)N(NC(=O)c1ccccc1)C(=O)c1cccc(Cl)c1Cl | 3.41 |
| CC(C)(C)N(NC(=O)c1ccccc1)C(=O)c1ccc(Cl)cc1Cl | 3.55 |
| CC(C)(C)N(NC(=O)c1ccccc1)C(=O)c1ccc(C#N)cc1 | 2.5 |
| CC(C)(C)N(NC(=O)c1ccccc1)C(=O)c1ccc(Br)cc1 | 3.66 |
| CC(C)(C)N(NC(=O)c1ccccc1)C(=O)c1ccccc1Br | 2.69 |
| CC(C)(C)N(NC(=O)c1ccccc1)C(=O)c1ccc(Cl)c(Cl)c1 | 4.25 |
| CC(C)(C)N(NC(=O)c1ccccc1)C(=O)c1c(F)cccc1Cl | 2.34 |
| CC(C)(C)N(NC(=O)c1ccccc1)C(=O)c1cc(F)c(F)c(F)c1F | 3.44 |
| COc1ccc(C(=O)N(NC(=O)c2ccccc2)C(C)(C)C)cc1 | 2.56 |
| CC(C)(C)N(NC(=O)c1ccccc1)C(=O)c1cccc(I)c1 | 3.72 |
| CC(C)(C)N(NC(=O)c1ccccc1)C(=O)c1cccc(C#N)c1 | 2.34 |
| CC(C)(C)N(NC(=O)c1ccccc1)C(=O)c1cccc(Br)c1 | 3.49 |
| Cc1ccc(C(=O)N(NC(=O)c2ccccc2)C(C)(C)C)cc1C | 3.34 |
| Cc1cccc(C(=O)N(NC(=O)c2ccccc2)C(C)(C)C)c1 | 2.79 |
| CCc1ccccc1C(=O)N(NC(=O)c1ccccc1)C(C)(C)C | 2.96 |
